Drawing on patent publication US9868737B2, “Pyridino[1,2-A]pyrimidone analogue used as MTOR/P13K inhibitor” (CISEN PHARMACEUTICAL CO., LTD., priority 2014, dated 2018), this text covers inhibition and IC50 for 40 compounds.

This experiment deals with MCF-7 cells. The experiment can be described thus: In vitro test of cell activity (MCF-7 cells, insulin stimulation, ELISA-One fluorescence). Type of experiment: cell-based. The conditions noted are these: Homo sapiens, MCF7, MCF-7 cells; for inhibition at 0.25 µM: conc. 0.25 μM. In short, it runs like this:
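Fluorescence ELISA-One read-out on cell lysates, antibody-captured 1 h at room temperature. Before lysis, MCF-7 cells (2.5×10^4/well) were pretreated 2 h with compound in serum-free medium, single dose for screening or a dilution series for IC50, then stimulated 30 min with insulin ([…] final).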

Read-outs that look alike come from different tables or passages of the source. Some results are limits rather than exact numbers.

The inhibition is the drop in the measured response relative to a control, in per cent. A word on the IC50: it is the concentration needed to halve the response being measured.

For the compound `COc1ncc(-c2ccc3ncc(Cl)c(=O)n3c2)cc1NS(=O)(=O)c1c(C)n[nH]c1C` [compound 163], the inhibition at 0.25 µM runs as follows: (read-out: % inhibition AKT) 78.1%; (read-out: % inhibition p70s6k) 88.8%. Also, the IC50 (read-out: IC50 p-AKT) lay in the range of 100 to 250 nM and the IC50 (read-out: IC50 p-p70S6K) fell in the range of 50 to 100 nM.
In the case of `COc1ncc(-c2ccc3ncc(Cl)c(=O)n3c2)cc1NS(=O)(=O)c1cccnc1C` [compound 164], the inhibition at 0.25 µM (read-out: % inhibition AKT) stood at 79.4% and the inhibition at 0.25 µM (read-out: % inhibition p70s6k) amounted to 89.6%. The IC50 was at most 50 nM (read-out: IC50 p-AKT) and 50 to 100 nM (read-out: IC50 p-p70S6K).
As for `COc1ncc(-c2ccc3ncc(Cl)c(=O)n3c2)cc1NS(=O)(=O)c1[nH]c(C)nc1C` [compound 165], the inhibition at 0.25 µM is, setting by setting: (read-out: % inhibition AKT) 49.5%; (read-out: % inhibition p70s6k) 63.7%.
As for `COc1ncc(-c2ccc3ncc(Cl)c(=O)n3c2)cc1NS(=O)(=O)c1c(C)noc1C` [compound 166], the inhibition at 0.25 µM is 66.5% (read-out: % inhibition AKT) and 89.2% (read-out: % inhibition p70s6k). In addition, the IC50 was 100 to 250 nM (read-out: IC50 p-AKT) and 100 to 250 nM (read-out: IC50 p-p70S6K).
For the compound `COc1ncc(-c2ccc3ncc(Cl)c(=O)n3c2)cc1NS(=O)(=O)c1sc(NC(C)=O)nc1C` [compound 167], the IC50 (read-out: IC50 p-AKT) was 100 to 250 nM.
On the same count and under the same terms, with `COc1ncc(-c2ccc3ncc(Cl)c(=O)n3c2)cc1NS(=O)(=O)c1sc(Cl)nc1C` [compound 168] the figure was at most 50 nM; with `COc1ncc(-c2ccc3ncc(Cl)c(=O)n3c2)cc1NS(=O)(=O)c1ccc(C)nc1C` [compound 169], at most 50 nM; with `COc1ncc(-c2ccc3ncc(Cl)c(=O)n3c2)cc1NS(=O)(=O)c1nc(N)sc1C` [compound 170], at most 50 nM.
As for `CCOc1cnc2ccc(-c3cnc(OC)c(NS(=O)(=O)c4ccc(F)cc4F)c3)cn2c1=O` [compound 171, N-(5-(3-ethoxy-4-oxo-4H-pyrido[1,2-a]pyrimidin-7-yl)-2-methoxypyridin-3-yl)-2,4-difluorobenzsulfamide], the inhibition at 0.25 µM turned out to be 76.3% (read-out: % inhibition AKT) and 73.4% (read-out: % inhibition p70s6k). Further, the IC50 by setting is: (read-out: IC50 p-AKT) 50 to 100 nM; (read-out: IC50 p-p70S6K) 100 to 250 nM.
For `CCOc1cnc2ccc(-c3cnc(OC)c(NS(=O)(=O)c4ccc(F)cc4Cl)c3)cn2c1=O` [compound 172] the same measures were 83.5%, 74.4%, at most 50 nM and 100 to 250 nM.
As to `CCOc1cnc2ccc(-c3cnc(OC)c(NS(=O)(=O)c4ccccc4Cl)c3)cn2c1=O` [compound 173], the inhibition at 0.25 µM (read-out: % inhibition AKT) came out at 88.9% and the inhibition at 0.25 µM (read-out: % inhibition p70s6k) was 82.6%.
Turning to `COCCOc1cnc2ccc(-c3cnc(OC)c(NS(=O)(=O)c4ccc(F)cc4F)c3)cn2c1=O` [compound 175, 2,4-difluoro-N-(2-methoxy-5-(3-(2-methoxyethoxy)-4-oxo-4H-pyrido[1,2-a]pyrimidin-7-yl)pyridin-3-yl)benzsulfamide], the inhibition at 0.25 µM (read-out: % inhibition AKT) is 75.2% and the inhibition at 0.25 µM (read-out: % inhibition p70s6k) was 65.4%. Moreover, the IC50 is, setting by setting: (read-out: IC50 p-AKT) 50 to 100 nM; (read-out: IC50 p-p70S6K) 100 to 250 nM.
`COCCOc1cnc2ccc(-c3cnc(OC)c(NS(=O)(=O)c4sc(C)nc4C)c3)cn2c1=O` [compound 176]: the IC50 is, setting by setting: (read-out: IC50 p-AKT) at most 50 nM; (read-out: IC50 p-p70S6K) at most 50 nM.
On to `COc1ncc(-c2ccc3ncc(OCC(=O)O)c(=O)n3c2)cc1NS(=O)(=O)c1ccc(F)cc1F` [compound 177], for which, under “read-out: IC50 p-AKT”, the IC50 is above 250 nM.
The same measure, in the same setting: with `COc1ncc(-c2ccc3ncc(OCCO)c(=O)n3c2)cc1NS(=O)(=O)c1ccc(F)cc1F` [compound 178] the figure was 50 to 100 nM.
With `COCOc1cnc2ccc(-c3cnc(OC)c(NS(=O)(=O)c4ccc(F)cc4F)c3)cn2c1=O` [compound 179], the IC50 is, setting by setting: (read-out: IC50 p-AKT) at most 50 nM; (read-out: IC50 p-p70S6K) at most 50 nM.
Turning to `COc1ncc(-c2ccc3ncc(OCCO)c(=O)n3c2)cc1NS(=O)(=O)c1sc(C)nc1C` [compound 180], the IC50 (read-out: IC50 p-AKT) is at most 50 nM.
On the same count and under the same terms, with `COCOc1cnc2ccc(-c3cnc(OC)c(NS(=O)(=O)c4sc(C)nc4C)c3)cn2c1=O` [compound 181] the figure was at most 50 nM; with `COCCOc1cnc2ccc(-c3cnc(OC)c(NS(=O)(=O)c4sccc4C)c3)cn2c1=O` [compound 182], above 250 nM.
Same read-out and setting: with `COCCOc1cnc2ccc(-c3cnc(OC)c(NS(=O)(=O)c4sc(N)nc4C)c3)cn2c1=O` [compound 183] the figure was at most 50 nM; with `COCOc1cnc2ccc(-c3cnc(OC)c(NS(=O)(=O)c4sc(N)nc4C)c3)cn2c1=O` [compound 184], 50 to 100 nM; with `COc1ncc(-c2ccc3ncc(OCC4COC4)c(=O)n3c2)cc1NS(=O)(=O)c1sc(C)nc1C` [compound 185], at most 50 nM.
On the same count and under the same terms, with `COc1ncc(-c2ccc3ncc(OCC4OCCO4)c(=O)n3c2)cc1NS(=O)(=O)c1sc(C)nc1C` [compound 186] the figure was at most 50 nM; with `COCCOc1cnc2ccc(-c3cnc(OC)c(NS(=O)(=O)c4ccc(OC)nc4C)c3)cn2c1=O` [compound 187], at most 50 nM; with `COCOCCOc1cnc2ccc(-c3cnc(OC)c(NS(=O)(=O)c4sc(C)nc4C)c3)cn2c1=O` [compound 188], at most 50 nM.
With `CNc1nc(C)c(S(=O)(=O)Nc2cc(-c3ccc4ncc(OCCOC)c(=O)n4c3)cnc2OC)s1` [compound 189], the IC50 (read-out: IC50 p-AKT) is at most 50 nM.
With `COCCOc1cnc2ccc(-c3cnc(OC)c(NS(=O)(=O)c4ccc(N)nc4C)c3)cn2c1=O` [compound 190], the concentration for half-maximal inhibition (IC50) (read-out: IC50 p-AKT) is at most 50 nM.
With `COCCOCCOc1cnc2ccc(-c3cnc(OC)c(NS(=O)(=O)c4sc(C)nc4C)c3)cn2c1=O` [compound 191], the concentration for half-maximal inhibition (IC50) (read-out: IC50 p-AKT) is at most 50 nM.
Same read-out and setting: with `COCCOc1cnc2ccc(-c3cnc(OC)c(NS(=O)(=O)c4ccc(C)nc4C)c3)cn2c1=O` [compound 192] the figure was at most 50 nM.
In the case of `COCCOc1cnc2ccc(-c3cnc(OC)c(NS(=O)(=O)c4sc(N(C)C)nc4C)c3)cn2c1=O` [compound 193], the IC50 (read-out: IC50 p-AKT) is at most 50 nM.
Same read-out and setting: with `COc1ncc(-c2ccc3ncc(OCCOC(C)C)c(=O)n3c2)cc1NS(=O)(=O)c1sc(C)nc1C` [compound 194] the figure was at most 50 nM.
As for `COCCOc1cnc2ccc(-c3cnc(OC)c(NS(=O)(=O)c4sc(OC)nc4C)c3)cn2c1=O` [compound 195], the IC50 (read-out: IC50 p-AKT) is at most 50 nM.
The same measure, in the same setting: with `COCCOc1cnc2ccc(-c3cnc(OC)c(NS(=O)(=O)c4sc(Cl)cc4C)c3)cn2c1=O` [compound 196] the figure was at most 50 nM; with `COc1ncc(-c2ccc3ncc(OCC4(C)COC4)c(=O)n3c2)cc1NS(=O)(=O)c1sc(C)nc1C` [compound 197], at most 50 nM; with `COc1ncc(-c2ccc3ncc(OCC4CCOCC4)c(=O)n3c2)cc1NS(=O)(=O)c1sc(C)nc1C` [compound 198], at most 50 nM.
Turning to `CCOCCOc1cnc2ccc(-c3cnc(OC)c(NS(=O)(=O)c4sc(C)nc4C)c3)cn2c1=O` [compound 199], for the setting “read-out: IC50 p-AKT”, the IC50 was at most 50 nM.
Still for that read-out and setting: with `COc1ncc(-c2ccc3ncc(OCC4CCOC4)c(=O)n3c2)cc1NS(=O)(=O)c1sc(C)nc1C` (centres unmarked) [compound 200] the figure was at most 50 nM; with `COc1ncc(-c2ccc3ncc(OCCCF)c(=O)n3c2)cc1NS(=O)(=O)c1sc(C)nc1C` [compound 201], at most 50 nM.
On the same count and under the same terms, with `COc1ncc(-c2ccc3ncc(OCCOCC(F)(F)F)c(=O)n3c2)cc1NS(=O)(=O)c1sc(C)nc1C` [compound 202] the figure was at most 50 nM.
`COc1ncc(-c2ccc3ncc(OC4COC4)c(=O)n3c2)cc1NS(=O)(=O)c1sc(C)nc1C` [compound 203]: the IC50 (read-out: IC50 p-AKT) was at most 50 nM.
